“Also recorded” adds a separate entry of the source.
Legend:
NG108-15 cells [1] = experiment: Automated patch-clamp electrophysiology, resting membrane potential; type: cell-based, mouse/rat; settings: NG108-15, immediately after application
Method: Electrophysiology. SyncroPatch 384PE platform (Nanion Technologies®) was used to perform the automated patch-clamp experiments. This system provides giga-ohm resistance seals during simultaneous recording in the 384-well plate format. Cells were harvested 48-72 h after seeding 1-2×10^6 cells in T175 culture flasks (Falcon), then cells were rinsed with PBS (5 mL) and treated with 3 mL Accutase ([…] technologies) for 5 min at 37° C., re-suspended in 10 mL of serum-free media and pelleted at 1000 rpm for 3 min at RT. […] The cells were kept until the moment of the experiment in a temperature controlled dedicated reservoir at 10° C. and shaken at 200 rpm as described. The experiments were performed within one hour after the harvesting process. The assays were carried in single-hole chips with resistances between 4-5 MΩ after priming the chip with the following solutions (in mM), physiological extracellular solution (pECS) 10 HEPES, 140 NaCl, 5 Glucose, 4 KCl, 2 CaCl2), 1 MgCl2, 295-305 mOsm pH 7.4 (NaOH). Internal recording solution (in mM) 20 EGTA, 50 KCl, 10 NaCl, 60 KF, 10 HEPES at pH 7.2, and 285 mOsm. 15 μL of the cell suspension (50% v/v pECS/Medium no serum) was added to each well to a final density of 50-80K cells/mL. Cell capture was promoted by holding a negative pressure of −100 mbar for 20 s. After successive hyperpolarization steps from −30 mV to −100 mV enhanced the capture the seal followed by the transient addition of a high Ca2+ extracellular solution (80 mM NaCl, 3 mM KCl, 35 mM CaCl2), 10 mM MgCl2, 10 mM HEPES at pH 7.4 and 298 mOsm. High Ca2+ solution is washed out by successive external exchanges replacing half of the volume of the well each time with the external recording solution. All recording solutions were prepared with ultrapure MilliQ water (18 MD-cm). After the formation of the Giga-seal, a 250 mbar pressure was applied to break the membrane patch. Once in whole-cell configuration, different voltage protocols were applied to dissect different conductances in NG108-15 cells. Signals were recorded in the current-clamp mode “I=0” (passive conditions) where no current was injected, to monitor the membrane potential. The membrane potentials were recorded for seven sweeps of 1 sec, with an inter-sweep time of 10 s. The average membrane potentials of the 7 sweeps were reported.
Electrophysiology of NG108-15 Cells Show Changes in Resting Membrane Potential Induced by Treatment. […] Untreated cells were patched, baseline measurements were taken and then the drugs were added and the changes in the cell Vmem were recorded.

NG108-15 cells [2] = experiment: Growth and FUCCI assays in NG108-15 cells (cell counts, cell cycle, recovery test); settings: for fold decrease in proliferation compared to control: high serum; for FUCCI cell cycle proportion: NG108-15, day 6
Method: Cells were plated in 96 well plates at a low confluence and drugs were added fresh every other day for 6 days. Some studies removed the drug at 6 days and added media with no drug for an additional 4 days to test for proliferation. Images of the cells were taken every day and a cell profiler pipeline was used to count the cells and determine the ratio of cells in each part of the cell cycle. […] Cell Culture. […] Cells were disassociated with Accutase and passaged when 70% confluent and maintained at 37° C. with 5% C02. Media was changed every two days. […] All drug screens including controls were done using 0.02% DMSO in the high serum Fluorobrite DMEM.
Growth and FUCCI assays. Both cell lines were plated at 5,000 cells per mL into black-walled flat-bottom 96-well plates coated with 1/50 dilution of Matrigel. Images of cells were taken on Day 0 and every subsequent day for 10 days using a Zeiss Axio1 fitted with an on-stage incubator and kept at 37° C. with 5% C02. A 5× objective was used along with filters for YFP, RFP, and CFP and careful calibration of each plate was done to ensure that the same fields of view were imaged each day. Drugs were added after the initial images were taken and then changed every two days until day 6. For recovery experiments, after imaging on day 6, all drugs were removed, and cells were put into imaging media without any added drugs. This media was changed every two days until day 10. Analysis of growth and snap shots of FUCCI reporters over the 6 days or 10 days was done using a CellProfiler [72]pipeline designed by the Broad. The fractional difference in cell number was calculated by dividing the total number of cells each day by the total number of cells from day 0. The ratio of cells in each cell cycle stage every day was determined by counting all the nuclei of one color and dividing it by the total number of nuclei. Blind quality control was done on all the images to make sure that any fibers or image artifacts were not incorrectly counted by the program.

[3] = breast cancer xenograft model in immunodeficient mice; cited from earlier work
[4] = human, in vivo; cited from earlier work
U87 cells = experiment: Antibody staining, BrdU and senescence assays in U87 cells; type: cell-based, human; settings: U87, 6 days
Method: Antibody Staining, BrdU and Senescence Assays. NG108-15 cells were plated on PEI and Matrigel coated plates at 15,000 or 30,000 cells/mL, U87 cells at 10,000 cells/mL and grown in imaging media for 6 days with drug treatment. Fresh media was added every 2 days. On day 6, cells were fixed with 4% formaldehyde in PBS for 30 minutes for all antibody staining, except for BrdU which was fixed for 15 minutes, and for the senescence assay which was fixed for 20 min using the Senescence Beta-Galactosidase Staining Kit (9860, CellSignaling) and thereafter stained according to manufacturer's protocol. After fixing, cells were washed twice with PBS, and were permeabilized in PBS with 0.3% Triton-X for 15 min then washed again twice with PBS. The cells for the BrdU assay were additionally treated with 1N HCl for 10 min on ice, followed by a treatment with 2N HCl for 50 min at room temp. Cells were then blocked with standard blocking buffer comprised of TBS containing 10% goat serum, 0.1% BSA, and with 0.05% Tween 20 or without detergent for antibodies against phosphorylated proteins or monoclonal antibodies except for Anti-YAP and Anti-BrdU staining, which were done according to manufacturer's protocol. […] Cells were imaged with an EVOS M7000 system, with at least 50% of each well in a 96 well plate imaged and analyzed using a CellProfiler pipeline for measuring integrated intensity, mean intensity, or nuclear to cytoplasmic ratio of mean intensities.

SMILES | change in resting membrane potential compared to control (NG108-15 cells [1]) | fold decrease in proliferation compared to control (NG108-15 cells [2]; NG108-15, 6 days of treatment, NS1643 at 20 μM) | fold decrease in proliferation compared to control (NG108-15 cells [2]; NG108-15, 6 days of treatment, NS1643 at 50 μM) [fold] | FUCCI cell cycle proportion (NG108-15 cells [2]) | toxicity on the heart or on normal breast epithelial cells [3] | blood brain barrier penetrance [4] [%] | cell proliferation compared to control (words) (NG108-15 cells [2]; NG108-15, 6 days of treatment) | recovery of proliferation after treatment removed (NG108-15 cells [2]; NG108-15, drugs removed at day 6, followed to day 10) | NFM and NSE (U87 cells) | YAP nuclear to cytoplasmic ratio (U87 cells) | astrocytic differentiation markers (U87 cells)
O=C(Nc1cc(C(F)(F)F)ccc1O)Nc1cc(C(F)(F)F)ccc1O [NS1643] | significantly hyperpolarized | about 1.6 fold | ~2.4 | did not seem to affect the cell cycle proportion | did not show any overt toxicity | – | – | – | – | – | –
COc1ccnc(C[S+]([O-])c2nc3ccc(OC(F)F)cc3[nH]2)c1OC (stereo not shown) [Pantoprazole, pantoprazole] | did not have an immediate effect | – | – | increase in cells arrested at late S phase; also recorded: increases the proportion of cells in early S | – | 2 | very significant decrease in cell proliferation | immediately re-entered the cell cycle | increased | not to have a significant effect | increased

Reference: patent publication US20250049747A1, “USE OF HYPERPOLARIZING AGENTS ALONE AND IN COMBINATION WITH OTHER THERAPEUTIC AGENTS FOR TREATING CANCERS INCLUDING GLIOBLASTOMA” (Trustees of Tufts College, priority 2021, published 2025)
